How the values were obtained:
nicotinic receptors = test: Ligand fishing with CMNPs with immobilized nicotinic receptors, artificial mixture of known binders and non-binders; format: binding; details: equimolar (100 nM) artificial mixture; three washes with ammonium acetate buffer; elution buffer:methanol (9:1, v/v)
Experimental: Fishing experiments can be used to evaluate the CMNP assay. As an example, CMNPs were constructed with immobilized nicotinic receptors. Parameters include selectivity, detection limit, stability, and reuse of CMNPs. The assay or fishing experiment (FIG. 3A) involves magnetic separation of CMNPs with bound compounds after 20 min incubation in an artificial mixture of known binders and nonbinders. After 3 washes with buffer, receptor-bound compounds are released during the elution process. Eluted compounds can be analyzed by high-performance liquid chromatography coupled with diode-array detection and electrospray ionization tandem mass spectrometry (HPLC-DAD-MS).
(§1) Screening experiments can be conducted with samples of various level of complexity (artificial mixtures, natural extracts with known binders). First, artificial mixtures of known binders and non-binders can be used to evaluate selectivity. In a particular example, CMNPs containing nicotinic receptors were prepared. An artificial equimolar (100 nM) mixture of known binders and non-binders was also prepared. Known binders included known nicotinic receptor binders: nicotine (#1), anabasine (#2), cytisine (#3) and non-binders: butyrylcholine iodide (#4), berberine (#5), warfarin (#6) and caffeic acid (#7). First, the CMNPs (˜10^9) were placed in 0.5 mL artificial mixture and incubated. CMNPs were subsequently washed three times with ammonium acetate buffer. After washing, CMNPs were eluted with a buffer:methanol (9:1, v/v) mixture. In both the washing and elution steps, CMNPs were separated from supernatant using a magnet.

[1] = tested on: CMNPs prepared using parental HEK cell line not expressing nicotinic receptors; test: Fishing with negative control CMNPs prepared from parental HEK cell line not expressing nicotinic receptors; format: binding; details: fishing experiments, data not shown
Experimental: as §1
As an example, CMNPs containing nicotinic receptors were used to screen a different set of potential binders in a crude mixture: that of tobacco smoke condensates (FIG. 5). The results obtained with nicotinic receptor CMNPs were compared with those obtained for negative control CMNPs. […] Therefore, the only difference between nicotinic and negative control CMNPs is the absence of nicotinic receptors in control CMNPs. After three washes with ammonium acetate buffer, the CMNPs were eluted using first ammonium acetate buffer:methanol mixture (9:1, v/v; elutions 1-3), and then ammonium acetate buffer methanol mixture (1:9, v/v, elution 4).

TrkB receptors [2] = target: T1, TrkB receptors (Homo sapiens, UniProt Q16620); test: Fishing experiments with CMNPs with immobilized TrkB receptors, artificial mixture; format: binding; details: equimolar (100 nM) mixture, HPLC-ESI-MS of washing and elution profiles
T1 construct: expressed in transfected cells; host or cells: SH-SY5Y neuroblastoma cells stably overexpressing TrkB
Experimental: Functional TrkB receptors (example of tyrosine kinase receptors) were immobilized on nanoparticles using the CMNPs technology described herein. Neuroblastoma SH-SY5Y cell line stably overexpressing TrkB receptors were used. Cell membrane fragments and nanoparticles used in the preparation of CMNPs were obtained using the previously optimized protocols, as described for the nicotinic receptors.
The fishing experiments were performed using the procedure previously optimized and described herein for nicotinic receptors. Washing and elution steps were performed using solvents previously reported for nicotinic receptor experiments. The difference between nicotinic and TrkB receptor experiments was with the type of artificial mixture components.

[3] = tested on: negative control CMNPs prepared with the parental SH-SY5Y cell line without TrkB receptors; test: Fishing with negative control CMNPs prepared with the parental SH-SY5Y cell line without TrkB receptors; format: binding
Description: The use of negative control CMNPs prepared with the parental SH-SY5Y cell line without TrkB receptors allowed discernment between specific and non-specific interactions. […] Compounds interacting only with CMNPs expressing TrkB receptors and not interacting with negative control CMNPs are specifically binding with TrkB receptors.

TrkB receptors [4] = target: T1, TrkB receptors; test: Conversion of ATP to ADP by immobilized TrkB receptors on CMNPs (HPLC-ESI-MS); format: biochemical; details: for conversion of ATP to ADP by CMNPs with TrkB receptors: 5 mM ATP, 100 μM activator
Experimental: To further test the activity of the immobilized TrkB receptors, additional experiments that focused on determining the ability of the immobilized receptors to convert ATP to ADP were performed, a process commonly performed by all types of tyrosine kinase receptors. Tyrosine kinases, when active, convert ATP to ADP as they use phosphate groups to phosphorylate targeted proteins in the process of signal transduction inside a cell. […] 37° C.

T1 sequence (Q16620 32-822): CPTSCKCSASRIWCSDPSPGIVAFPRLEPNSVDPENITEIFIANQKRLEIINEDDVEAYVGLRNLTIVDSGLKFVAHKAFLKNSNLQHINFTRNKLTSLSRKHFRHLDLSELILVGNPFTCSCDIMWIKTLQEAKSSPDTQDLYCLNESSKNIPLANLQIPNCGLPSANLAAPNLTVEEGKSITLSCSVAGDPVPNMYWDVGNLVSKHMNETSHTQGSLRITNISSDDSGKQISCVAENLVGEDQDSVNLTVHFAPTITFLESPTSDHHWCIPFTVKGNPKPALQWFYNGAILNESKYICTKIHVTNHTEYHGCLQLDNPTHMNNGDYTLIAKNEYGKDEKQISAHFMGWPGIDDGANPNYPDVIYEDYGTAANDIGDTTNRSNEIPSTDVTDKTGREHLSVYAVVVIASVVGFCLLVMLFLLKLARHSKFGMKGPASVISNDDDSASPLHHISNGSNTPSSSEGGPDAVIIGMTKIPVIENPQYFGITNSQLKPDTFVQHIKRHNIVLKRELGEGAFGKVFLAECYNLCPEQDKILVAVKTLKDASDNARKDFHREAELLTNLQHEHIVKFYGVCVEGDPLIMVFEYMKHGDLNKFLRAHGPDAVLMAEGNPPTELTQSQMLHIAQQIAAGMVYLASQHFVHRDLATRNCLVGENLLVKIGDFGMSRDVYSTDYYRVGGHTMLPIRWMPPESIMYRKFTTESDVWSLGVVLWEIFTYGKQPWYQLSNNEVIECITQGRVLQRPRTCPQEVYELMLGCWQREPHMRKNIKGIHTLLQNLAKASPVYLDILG

Row | SMILES | retention by CMNPs with immobilized nicotinic receptors (washing/elution, HPLC) (nicotinic receptors) | nonspecific binding to CMNPs from parental HEK cell line not expressing nicotinic receptors [1] | also measured
1 | c1cncc([C@@H]2CCCCN2)c1 [anabasine] | selectively retained | lack of nonspecific binding | –
2 | O=c1cccc2n1C[C@@H]1CNC[C@H]2C1 [cytisine] | selectively retained | lack of nonspecific binding | –
3 | O=c1cc(-c2ccccc2)oc2c(O)c(O)ccc12 [7,8-dihydroxyflavone] | – | – | retention by / interaction with CMNPs with immobilized TrkB receptors (TrkB receptors [2]): interacted only with CMNPs with TrkB receptors; retention by / interaction with CMNPs with immobilized TrkB receptors (TrkB receptors [2]; listed as 7,8-DHF): retained; interaction with negative control CMNPs without TrkB receptors [3]: no interaction; conversion of ATP to ADP by CMNPs with TrkB receptors (TrkB receptors [4]; 24-hour incubation, 4° C.): almost complete conversion of ATP to ADP; conversion of ATP to ADP by CMNPs with TrkB receptors (TrkB receptors [4]; 30 and 60 min, 37° C.): progressing conversion of ATP to ADP; conversion of ATP to ADP by nanoparticles themselves (structures inside CMNPs) (TrkB receptors [4]; nanoparticles without cell membrane, ATP (5 mM), activator 100 μM): did not lead to the conversion of ATP to ADP
4 | COc1ccc2cc3[n+](cc2c1OC)CCc1cc2c(cc1-3)OCO2 [berberine] | absence | – | –
5 | O=C(O)/C=C/c1ccc(O)c(O)c1 [caffeic acid] | absence | – | –
6 | CN1CCCC1c1cccnc1 (stereo not drawn) [nicotine] | selectively retained | lack of nonspecific binding | retention by / interaction with CMNPs with immobilized TrkB receptors (TrkB receptors [2]): retained small amount; retention by / interaction with CMNPs with immobilized TrkB receptors (TrkB receptors [2]; listed as Nicotine): interacted both with CMNPs with and without TrkB receptors; interaction with negative control CMNPs without TrkB receptors [3]: interacted both with CMNPs with and without TrkB receptors
7 | CCCC(=O)OCC[N+](C)(C)C.[I-] [butyrylcholine, butyrylcholine iodide] | absence | – | –
